Consider 1 molecule from patent publication US9029414B2, “Triterpenoid compounds and methods of use thereof” (Biotechnology Research Corporation, priority 2008, dated 2015).

The test system of experiment [1] is lymphocyte infiltrates in spinal cord of EAE mice. Description: Hematoxylin and eosin staining of spinal cords of EAE mice. In kind it is in vivo. As to conditions: DA001-treated vs vehicle-treated EAE mice. On the procedure: On day 21, animals were anesthetized intraperitoneally with 4% (w/v) chloral hydrate (BDH) in 0.9% (w/v) saline (USB). Once the anesthetics has set it, the animals were then perfused transcardially (Gilson) with 50 mL of 37° C., 0.005% (w/v) heparinized (Sigma) saline (USB), followed by 80 mL of ice-cold, 4% (w/v) paraformaldehyde (Sigma) in Dulbecco's Phosphate Buffered Saline (GIBCO). The perfused spinal cords were then further fixed in 4% (w/v) paraformaldehyde (Sigma) overnight at 4° C. After overnight incubation, the samples were prepared in an automated tissue processor for dehydration, clearing and paraffin infiltration (Leica EG1150H) followed by paraffin embedding (Leica RM2255). After overnight incubation at room temperature, the blocks were sectioned at 6 μm thickness on microtome (Leica 1250) and laid on Histobond slides (Merienfeld). The slides were incubated at 60 C oven for 24 h before being stained. On the day of staining, the slides were rehydrated in a series of EtOH solutions. The rehydrated slides were then submerged in hematoxyline solution for 20 min at room temperature. The slides were differentiated in acidic solution before being fixed in a series of EtOH solutions then eosin at 20 min in room temperature. […]

The subject of a further experiment is ischemic rats. Description: MCAO (middle carotid artery occlusion) transient focal ischemia model. In kind it is in vivo. Here is the method:
The MCAO (middle carotid artery occlusion model) was performed to investigate the protective effects of DA001 on the brain when the brain was exposed to transient focal ischemia (or lack of oxygen) such as during a stroke. Hemispheric brain swelling and infarct volume (the area of dead tissue caused by inadequate blood supply) was measured for test subjects treated with the compound 6 hours after ischemia and compared to that of the control group.
The MCAO (middle carotid artery occlusion model) was performed to investigate the protective effects of DA001 on the brain when exposed to transient focal ischemia (or lack of oxygen) such as during a stroke. Neurological scores, hemispheric brain swelling and infarct volume (the area of dead tissue caused by inadequate blood supply) was measured in test subjects treated with the compound 6 hours after ischemia and compared to that of the control group. DA001 effectively attenuated neurological deficits, reduced infarct volume (the area of dead tissue caused by inadequate blood supply), especially in brain slices number 3 to 5, and the extent of edema during ischemic conditions as shown in FIG. 2.

The target of experiment [2] is serotonin (5-HT1D subtype) receptor (Homo sapiens, UniProt P28221). Kind of experiment: Radioligand competition binding assay, 5-HT1D. As to conditions: 10 μM in duplicate, read-out: % inhibition of control specific binding. On the procedure: (§1) DA001 was evaluated against 109 receptor binding assays and 17 enzyme assays, comprising of selective, central and peripheral therapeutically-relevant targets. Radioligand competition assays were conducted whereby DA001 was tested at one concentration (10 μM) in duplicate. […] It could compete with the radioligand [^125I-NDP-alpha-melanocyte-stimulating hormone (α-MSH)] binding for MC1 and MC4 but not MC3 and MC5 nor the related family, the melanin concentrating hormone receptors (MCH1 and MCH2).
serotonin (5-HT1D subtype) receptor, sequence (P28221 whole entry): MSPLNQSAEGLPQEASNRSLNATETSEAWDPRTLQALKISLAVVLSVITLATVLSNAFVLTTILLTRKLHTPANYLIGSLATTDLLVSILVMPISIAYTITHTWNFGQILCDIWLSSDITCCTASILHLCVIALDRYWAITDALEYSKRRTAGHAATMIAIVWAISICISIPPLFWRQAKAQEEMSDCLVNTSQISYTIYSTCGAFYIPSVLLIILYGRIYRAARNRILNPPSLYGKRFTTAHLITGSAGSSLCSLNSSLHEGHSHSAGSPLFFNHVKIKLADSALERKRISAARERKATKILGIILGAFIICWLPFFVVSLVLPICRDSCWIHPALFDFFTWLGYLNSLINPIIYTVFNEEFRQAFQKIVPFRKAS

The next experiment concerns the target human MC4 receptor (Homo sapiens, UniProt P32245). Kind of experiment: Radioligand competition binding assay, MC4. On the procedure: as §1
To determine the IC50 for DA001 to inhibit α-MSH binding on MC1 and MC4 receptor, the compound was further characterized by a dose-dependent study. DA001 was evaluated with 8 concentrations on MC1 and MC4 receptor binding assays.
The specific ligand binding to the receptors is defined as the difference between the total binding and the nonspecific binding determined in the presence of an excess of unlabelled ligand. The results are expressed as a percent of control specific binding [(measured specific binding/control specific binding)×100] and as a percent inhibition of control specific binding {100−[(measured specific binding/control specific binding)×100]} obtained in the presence of DA001. The IC50 values (concentration causing a half-maximal inhibition of control specific binding) and Hill coefficients (nH) were determined by non-linear regression analysis of the competition curves generated with mean replicate values using Hill equation curve fitting (Y=D+[(A−D)/(1+(C/C50)nH)], where Y=specific binding, D=minimum specific binding, A=maximum specific binding, C=compound concentration, C50=IC50, and nH=slope factor). This analysis was performed using a software developed at Cerep (Hill software) and validated by comparison with data generated by the commercial software SigmaPlot® 4.0 for Windows® (© 1997 by SPSS Inc.).
(In general: In a radioligand displacement assay an active substance lowers the binding of a labelled ligand.)

human MC4 receptor, sequence (P32245 whole entry): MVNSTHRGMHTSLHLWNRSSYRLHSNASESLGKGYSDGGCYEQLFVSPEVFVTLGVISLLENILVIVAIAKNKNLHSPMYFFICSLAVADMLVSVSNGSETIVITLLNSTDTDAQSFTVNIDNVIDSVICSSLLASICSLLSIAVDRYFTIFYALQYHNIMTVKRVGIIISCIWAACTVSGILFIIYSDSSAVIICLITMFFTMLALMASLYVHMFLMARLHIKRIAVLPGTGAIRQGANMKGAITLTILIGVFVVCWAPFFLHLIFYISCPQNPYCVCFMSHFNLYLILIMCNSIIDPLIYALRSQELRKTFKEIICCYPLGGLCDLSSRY

Regarding `C=C(C)[C@@H]1CC[C@]2(C(=O)O)CC[C@]3(C)C(CC[C@@H]4[C@@]5(C)CC[C@H](O[C@@H]6OC[C@H](O)[C@H](O)[C@H]6O[C@@H]6O[C@@H](C)[C@H](O)[C@@H](O)[C@H]6O)[C@@](C)(CO)[C@@H]5CC[C@]43C)[C@@H]12` (stereo partly drawn) [DA001, 3-O-[α-L-rhamnopyranosyl-(1→2)-α-L-arabinopyranosyl]-3,23-dihydroxy-20(29)-lupen-28-oic acid], the “lymphocytes surrounding axons / lymphocyte infiltration in spinal cord (H&E)” value in experiment [1] is on record as “dramatically reduced”. For the same molecule, the “total infarction of MCAO rats” value with ischemic rats (12.6 mg/kg and 25.2 mg/kg orally 6 h post-ischemia) is given as “significantly decreased”. The extent of edema result in the experiment with ischemic rats (42 mg/kg) is listed as “reduced the extent of edema”. The “neurological scores of ischemic rats” value in the experiment on ischemic rats (12.6 and 25.2 mg/kg orally 6 h post-ischemia) is “significantly improved”. In experiment [2], the inhibition at 10 µM was 30%. In addition, on human MC4 receptor, the inhibition constant Ki is 6.3 µM. On human MC4 receptor (8 concentrations), the IC50 stood at 6.8 µM. Besides, the nH on human MC4 receptor (Hill coefficient) was 1.3.

For orientation: inhibition means the share of the control response that was lost under treatment. The term Ki denotes the dissociation constant of the complex between target and ligand, obtained from inhibition or displacement. A lower Ki goes with higher affinity. The IC50 is the point on the concentration scale where inhibition reaches its midpoint. A lower IC50 goes with inhibition by little substance.
